Assays:
surinam grass = assay: Test E preemergence; type: in vivo, Brachiaria decumbens; details: for Surinam Grass plant response rating: scale 0 to 100 (0 no effect, 100 complete control); for Plant response rating, Surinam Grass: scale 0 to 100, 0 no effect, 100 complete control
Outline: (§1)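 Test chemicals formulated in a non-phytotoxic solvent mixture containing a surfactant were applied preemergence to seeds in silt loam soil or postemergence to plants at the 1- to 4-leaf stage in potting mix. After 14 to 21 days in a greenhouse, injury was visually rated against controls on a 0-100 scale (0 = no effect, 100 = complete control).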

arrowleaf sida = assay: Test E preemergence; type: in vivo, Sida rhombifolia; details: for Arrowleaf Sida plant response rating: scale 0 to 100 (0 no effect, 100 complete control); for Plant response rating, Arrowleaf Sida: scale 0 to 100, 0 no effect, 100 complete control
Outline: as §1

ragweed = assay: Test A postemergence; type: in vivo, Ambrosia elatior; details: 0 to 100 scale where 0 is no effect and 100 is complete control
Outline: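 Visual 0–100 rating (100 = complete control) taken about 10 d post-treatment relative to untreated checks. Preemergence: directed soil spray on sown loam/sand pots. Postemergence: seedlings 2–10 cm, 1–2 leaf. Non-phytotoxic solvent formulation with surfactant.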

Italian ryegrass = assay: Test E preemergence; type: in vivo, Lolium multiflorum; details: for Ryegrass, Italian plant response rating: scale 0 to 100 (0 no effect, 100 complete control); for Plant response rating, Ryegrass, Italian: scale 0 to 100, 0 no effect, 100 complete control
Outline: as §1

green foxtail [1] = assay: Test E preemergence; type: in vivo, Setaria viridis; details: for Foxtail, Green plant response rating: scale 0 to 100 (0 no effect, 100 complete control); for Plant response rating, Foxtail, Green: scale 0 to 100, 0 no effect, 100 complete control
Outline: as §1

green foxtail [2] = assay: Test D postemergence; type: in vivo, Setaria viridis; details: Setaria viridis, post-emergence; for pest or weed control at 16 g/ha: 16 g ai/ha, scale 0-100, read-out: Plant response rating, Foxtail, Green; for pest or weed control at 31 g/ha: 31 g ai/ha; for pest or weed control at 31 g/ha / pest or weed control at 62 g/ha / pest or weed control at 125 g/ha / pest or weed control at 250 g/ha: scale 0 to 100 (0 no effect, 100 complete control), read-out: Plant response rating, Foxtail, Green; for pest or weed control at 62 g/ha: 62 g ai/ha; for pest or weed control at 125 g/ha: 125 g ai/ha; for pest or weed control at 250 g/ha: 250 g ai/ha
Excerpt: Seeds of plant species selected from bluegrass (annual bluegrass, Poa annua), blackgrass (Alopecurus myosuroides), canarygrass (littleseed canarygrass, Phalaris minor), chickweed (common chickweed, Stellaria media), galium (catchweed bedstraw, Galium aparine), bromegrass, downy (downy bromegrass, Bromus tectorum), field poppy (Papaver rhoeas), field violet (Viola arvensis), green foxtail (Setaria viridis), deadnettle (henbit deadnettle, Lamium amplexicaule), Italian ryegrass (Lolium multiflorum), kochia (Kochia scoparia), lambsquarters (Chenopodium album), oilseed rape (Brassica napus), pigweed (Amaranthus retroflexus), chamomile (scentless chamomile, Matricaria inodora), Russian thistle (Salsola kali), speedwell (bird's-eye speedwell, Veronica persica), spring barley (Hordeum vulgare), spring wheat (Triticum aestivum), wild buckwheat (Polygonum convolvulus), wild mustard (Sinapis arvensis), wild oat (Avena fatua), wild radish (Raphanus raphanistrum), windgrass (Apera spica-venti), winter barley (Hordeum vulgare), and winter wheat (Triticum aestivum) were planted into a silt loam soil and treated preemergence with test chemicals formulated in a non-phytotoxic solvent mixture which included a surfactant.
At the same time, these species were planted in pots containing Redi-Earth® planting medium (Scotts Company, 14111 Scottslawn Road, Marysville, Ohio 43041) comprising spaghnum peat moss, vermiculite, wetting agent and starter nutrients and treated with postemergence applications of the test chemicals formulated in the same manner. Plants ranged in height from 2 to 18 cm (1- to 4-leaf stage). Treated plants and controls were maintained in a controlled growth environment for 7 to 21 days after which time all species were compared to controls and visually evaluated. Plant response ratings, summarized in Table D, are based on a scale of 0 to 100 where 0 is no effect and 100 is complete control. A dash (-) response means no test result.

giant foxtail = assay: Test E preemergence; type: in vivo, Setaria faberii; details: for Foxtail, Giant plant response rating: scale 0 to 100 (0 no effect, 100 complete control); for Plant response rating, Foxtail, Giant: scale 0 to 100, 0 no effect, 100 complete control
Outline: as §1

sandbur = assay: Test E preemergence; type: in vivo, Cenchrus echinatus; details: for Sandbur plant response rating: scale 0 to 100 (0 no effect, 100 complete control); for Plant response rating, Sandbur: scale 0 to 100, 0 no effect, 100 complete control
Outline: as §1

johnsongrass = assay: Test E preemergence; type: in vivo, Sorghum halepense; details: for Johnsongrass plant response rating: scale 0 to 100 (0 no effect, 100 complete control); for Plant response rating, Johnsongrass: scale 0 to 100, 0 no effect, 100 complete control
Outline: as §1

Structure (SMILES)	Surinam Grass plant response rating (surinam grass; 16 g ai/ha)	Surinam Grass plant response rating (surinam grass; 31 g ai/ha)	Surinam Grass plant response rating (surinam grass; 62 g ai/ha)	Plant response rating, Surinam Grass (surinam grass; 125 g ai/ha)	Arrowleaf Sida plant response rating (arrowleaf sida; 16 g ai/ha, preemergence)	Arrowleaf Sida plant response rating (arrowleaf sida; 31 g ai/ha, preemergence)	Plant response rating, Arrowleaf Sida (arrowleaf sida; preemergence, 125 g ai/ha)	Ryegrass, Italian plant response rating (Italian ryegrass; 16 g ai/ha)	Ryegrass, Italian plant response rating (Italian ryegrass; 31 g ai/ha)	Ryegrass, Italian plant response rating (Italian ryegrass; 62 g ai/ha)	Plant response rating, Ryegrass, Italian (Italian ryegrass; 125 g ai/ha)	Foxtail, Green plant response rating (green foxtail [1]; 16 g ai/ha)	Foxtail, Green plant response rating (green foxtail [1]; 31 g ai/ha)	Foxtail, Green plant response rating (green foxtail [1]; 62 g ai/ha)	Plant response rating, Foxtail, Green (green foxtail [1]; 125 g ai/ha)	pest or weed control at 31 g/ha (green foxtail [2]) [%]	pest or weed control at 62 g/ha (green foxtail [2]) [%]	pest or weed control at 125 g/ha (green foxtail [2]) [%]	Foxtail, Giant plant response rating (giant foxtail; 16 g ai/ha)	Foxtail, Giant plant response rating (giant foxtail; 31 g ai/ha)	other results
FC(F)(F)COc1cnn(-c2ccccc2Oc2ncc(Cl)cn2)c1 [Compound 138, 5-chloro-2-[2-[4-(2,2,2-trifluoroethoxy)-1H-pyrazol-1-yl]phenoxy]pyrimidine]	0	0	20	50	0	0	100	0	0	0	20	0	0	20	98	20	20	30	0	0	Arrowleaf Sida plant response rating (arrowleaf sida; 62 g ai/ha, preemergence): 40; Ragweed plant response rating (ragweed; 125 g ai/ha): 30; Plant response rating, Ragweed (ragweed; 500 g ai/ha): 60; pest or weed control at 16 g/ha (green foxtail [2]): 20%; Foxtail, Giant plant response rating (giant foxtail; 62 g ai/ha): 30; Plant response rating, Foxtail, Giant (giant foxtail; 125 g ai/ha): 75; Sandbur plant response rating (sandbur; 16 g ai/ha): 0; Sandbur plant response rating (sandbur; 31 g ai/ha): 0; Sandbur plant response rating (sandbur; 62 g ai/ha): 10; Plant response rating, Sandbur (sandbur; 125 g ai/ha): 15; Johnsongrass plant response rating (johnsongrass; 16 g ai/ha): 0; Johnsongrass plant response rating (johnsongrass; 31 g ai/ha): 0; Johnsongrass plant response rating (johnsongrass; 62 g ai/ha): 35; Plant response rating, Johnsongrass (johnsongrass; 125 g ai/ha): 40
FC(F)(F)c1cnn(-c2ccccc2Oc2ncc(Br)cn2)c1 [Compound 18, 5-bromo-2-[2-[4-(trifluoromethyl)-1H-pyrazol-1-yl]phenoxy]pyrimidine]	0	0	0	0	0	5	85	0	0	0	20	0	0	65	100	10	15	20	0	15	Plant response rating, Surinam Grass (surinam grass; 250 g ai/ha): 20; Plant response rating, Arrowleaf Sida (arrowleaf sida; Preemergence, 62 g ai/ha): 70; Plant response rating, Arrowleaf Sida (arrowleaf sida; preemergence, 250 g ai/ha): 95; Plant response rating, Ryegrass, Italian (Italian ryegrass; 250 g ai/ha): 35; Plant response rating, Foxtail, Green (green foxtail [1]; 250 g ai/ha): 100; pest or weed control at 16 g/ha (green foxtail [2]): 10%; pest or weed control at 250 g/ha (green foxtail [2]): 25%; Foxtail, Giant plant response rating (giant foxtail; 62 g ai/ha): 65; Plant response rating, Foxtail, Giant (giant foxtail; 125 g ai/ha): 95; Plant response rating, Foxtail, Giant (giant foxtail; 250 g ai/ha): 98; Sandbur plant response rating (sandbur; 16 g ai/ha): 0; Sandbur plant response rating (sandbur; 31 g ai/ha): 0; Sandbur plant response rating (sandbur; 62 g ai/ha): 0; Plant response rating, Sandbur (sandbur; 125 g ai/ha): 5; Plant response rating, Sandbur (sandbur; 250 g ai/ha): 75; Johnsongrass plant response rating (johnsongrass; 16 g ai/ha): 0; Johnsongrass plant response rating (johnsongrass; 31 g ai/ha): 0; Johnsongrass plant response rating (johnsongrass; 62 g ai/ha): 0; Plant response rating, Johnsongrass (johnsongrass; 125 g ai/ha): 80
N#Cc1cccc(Oc2ncc(Cl)cn2)c1-n1cc(C(F)(F)F)cn1 [Compound 58, 3-[(5-chloro-2-pyrimidinyl)oxy]-2-[4-(trifluoromethyl)-1H-pyrazol-1-yl]benzonitrile]	0	0	25	65	80	100	100	30	35	75	98	65	95	100	100	20	40	65	75	100	Plant response rating, Surinam Grass (surinam grass; 250 g ai/ha): 90; Plant response rating, Arrowleaf Sida (arrowleaf sida; Preemergence, 62 g ai/ha): 100; Plant response rating, Arrowleaf Sida (arrowleaf sida; preemergence, 250 g ai/ha): 100; Plant response rating, Ryegrass, Italian (Italian ryegrass; 250 g ai/ha): 98; Plant response rating, Foxtail, Green (green foxtail [1]; 250 g ai/ha): 100; pest or weed control at 250 g/ha (green foxtail [2]): 80%; Foxtail, Giant plant response rating (giant foxtail; 62 g ai/ha): 100; Plant response rating, Foxtail, Giant (giant foxtail; 125 g ai/ha): 100; Plant response rating, Foxtail, Giant (giant foxtail; 250 g ai/ha): 100; Sandbur plant response rating (sandbur; 16 g ai/ha): 0; Sandbur plant response rating (sandbur; 31 g ai/ha): 20; Sandbur plant response rating (sandbur; 62 g ai/ha): 75; Plant response rating, Sandbur (sandbur; 125 g ai/ha): 90; Plant response rating, Sandbur (sandbur; 250 g ai/ha): 95; Johnsongrass plant response rating (johnsongrass; 31 g ai/ha): 35; Johnsongrass plant response rating (johnsongrass; 62 g ai/ha): 95; Plant response rating, Johnsongrass (johnsongrass; 125 g ai/ha): 95; Plant response rating, Johnsongrass (johnsongrass; 250 g ai/ha): 100
